These results are taken from US20110312996A1, “NOVEL INHIBITORS OF HEPATITIS C VIRUS REPLICATION” (priority 2010, published 2011).

SMILES strings stand for the structures. Bounds are passed on as bounds.

One assay concerns Huh7 cells containing HCV replicons with an integrated luciferase reporter gene. Kind of assay: HCV Replicon Assay (luciferase reporter). The format is cell-based. The following applies: Hepatitis C virus, Huh-7, 48 h, read-out: EC50 nM. As to the method:
Huh7 cells containing HCV replicons with an integrated luciferase reporter gene are maintained at 37° C. in 5% CO2 in Dulbecco's modified Eagle's medium (DMEM; Mediatech, Herndon, Va.) containing 10% heat-inactivated fetal bovine serum (FBS; Mediatech, Herndon, Va.), 2 mM L-glutamine (Cambrex Bioscience, Walkersville, Md.), 1% non essential amino acids (Lonza, Walkersville, Md.), 50 IU/mL penicillin (Mediatech, Herndon, Va.), […] streptomycin (Mediatech, Herndon, Va.) and 0.5 mg/mL G418 (Promega, Madison, Wis.). Cells are sub-divided 1:3 or 4 every 2-3 days.
24 h prior to the assay, Huh7 cells containing sub-genomic HCV replicons are collected, counted, and plated in Nunclon 96-well tissue culture plates (ThermoFisher, Rochester, N.Y.) at 5000 cells/well in […] standard maintenance medium (above) and incubated in the conditions above. To initiate the assay, culture medium is removed, and replaced with […] maintenance media lacking G418. Test compounds are serially diluted three-fold in dimethyl sulfoxide (DMSO) in two duplicate rows for each EC50 determination. These compound solutions are diluted ten-fold in DMEM lacking serum and G418. […] of these compound solutions in media are added to duplicate tissue culture plates. The final volume is 100 μL with a DMSO concentration of 1%. Compound concentrations are adjusted to appropriately define a dose response curve. Typical dilution series range from […] to 1.69 nM final concentrations to 1 nM to 16.9 fM final. Plates are incubated at 37° C. for approximately 48 hr.
Following incubation, media is removed from one of the two duplicate plates and replicon-reporter luciferase activity is measured using a Bright-Glo luciferase assay kit (Promega, Madison, Wis.) according to manufacturer's instructions. Semi-log plots of luciferase activity versus the logarithm of compound concentration are fit to a 4-parameter logistic function using XLfit software (IDBS Inc., Guildford, UK) to determine EC50.
For orientation: In antiviral work, replicon cells carry a viral genome segment that copies itself.
One may read the EC50 as the concentration needed to bring the measured effect to its halfway point. Take `COC(=O)N[C@H](C(=O)N1CCC[C@H]1C(=O)Nc1ccc2cc(-c3ccccc3)ccc2c1)C(C)C` [Compound 502]: the concentration giving a half-maximal response (EC50) was above 100 nM.

Still in this assay, the particulars now being: Hepatitis C virus, Huh-7; Huh7 sub-genomic HCV replicon, luciferase activity, approximately 48 hr incubation; read-out: EC50.
With `COC(=O)N[C@H](C(=O)N1CCC[C@H]1c1nc(-c2ccc(-c3ccc(-c4c[nH]c([C@@H]5CCCN5C(=O)[C@@H](NC(=O)OC)c5ccc(F)cc5)n4)cc3)cc2)c[nH]1)c1ccc(F)cc1` [Compound 421], the EC50 is below 10 nM. On the same count and under the same terms, to `COC(=O)N[C@H](C(=O)N1CCC[C@H]1c1nc2ccc(-c3ccc(-c4ccc5nc([C@@H]6CCCN6C(=O)[C@@H](NC(=O)OC)c6ccc(F)cc6)[nH]c5c4)cc3)cc2[nH]1)c1ccc(F)cc1` [Compound 422] belongs below 10 nM; to `COC(=O)N[C@H](C(=O)N1CCC[C@H]1c1nc(-c2ccc(-c3ccc(-c4c[nH]c([C@@H]5CCCN5C(=O)[C@@H](NC(=O)OC)C(C(F)(F)F)C(F)(F)F)n4)cc3)cc2)c[nH]1)C(C(F)(F)F)C(F)(F)F` [Compound 423], below 10 nM. On to `COC(=O)N[C@H](C(=O)N1CCC[C@H]1c1nc(-c2ccc(-c3ccc(-c4c[nH]c([C@@H]5CCCN5C(=O)[C@@H](NC(=O)OC)c5cccc(F)c5)n4)cc3)cc2)c[nH]1)c1cccc(F)c1` [Compound 424], for which the EC50 is below 10 nM.

Turning to `COC(=O)N[C@H](C(=O)N1CCC[C@H]1C(=O)OCC(=O)c1ccc(N2CCN(Cc3ccccc3)CC2)cc1)C(C)C` [Compound 501], the EC50 is above 100 nM.

Take `COC(=O)N[C@H](C(=O)N1CCC[C@H]1c1nc(-c2ccccc2)c[nH]1)C(C)C` [Compound 504]: the EC50 is above 100 nM. Still for that read-out and setting: to `COc1ccc2cc(-c3c[nH]c([C@@H]4CCCN4C(=O)OC(C)(C)C)n3)ccc2c1` [Compound 505] belongs above 100 nM; to `COC(=O)N[C@H](C(=O)N1CCC[C@H]1C(=O)NCc1ccc(-c2ccc(-c3c[nH]c([C@@H]4CCCN4C(=O)[C@@H](NC(=O)OC)C(C)C)n3)cc2)cc1)C(C)C` [Compound 506], below 10 nM; to `COC(=O)N[C@H](C(=O)N1CCC[C@H]1c1nc(-c2ccc(-c3ccc(-c4c[nH]c([C@@H]5CCCN5C(=O)[C@@H](NC(=O)OC)C(C)C)n4)c4c3CCC4)c3c2CCC3)c[nH]1)C(C)C` [Compound 601], below 10 nM. On to `COC(=O)N[C@H](C(=O)N1CCC[C@H]1c1nc(-c2ccc(-c3ccc(-c4c[nH]c([C@@H]5CCCN5C(=O)[C@@H](NC(=O)OC)C(C)C)n4)c4ocnc34)c3ncoc23)c[nH]1)C(C)C` [Compound 602], for which the half-maximal effective concentration (EC50) was below 10 nM. On to `COC(=O)NC(C(=O)N1CCC[C@H]1c1nc(-c2ccc(-c3ccc(-c4c[nH]c(N5CCCN5C(=O)[C@@H](NC(=O)OC)C(C)C)n4)c4scnc34)c3ncsc23)c[nH]1)C(C)C` (stereo partly drawn) [Compound 603], for which the 50% effective concentration (EC50) was below 10 nM. Turning to `COC(=O)N[C@H](C(=O)N1CCC[C@@]1(C)c1nc(-c2ccc(-c3ccc(-c4c[nH]c([C@]5(C)CCCN5C(=O)[C@@H](NC(=O)OC)C(C)C)n4)c4c3CCC4)c3c2CCC3)c[nH]1)C(C)C` [Compound 604], the EC50 was below 10 nM. As for `COC(=O)N[C@H](C(=O)N1CCC[C@H]1c1nc(-c2ccc(-c3ccc(-c4c[nH]c([C@]5(C)CCCN5C(=O)[C@@H](NC(=O)OC)C(C)C)n4)c4c3CCC4)c3c2CCC3)c[nH]1)C(C)C` [Compound 605], the EC50 is below 10 nM.

Consider `COC(=O)N[C@H]1CC[C@H]2CC[C@@H](c3nc(-c4ccc(-c5ccc(-c6c[nH]c([C@@H]7CC[C@@H]8CC[C@H](NC(=O)OC)C(=O)N87)n6)cc5)cc4)c[nH]3)N2C1=O` [Compound 801], for which the concentration giving a half-maximal response (EC50) was above 100 nM. As to `COC(=O)N[C@H]1CC[C@H]2CC[C@@H](C(=O)Nc3ccc(/C=C/c4ccc(NC(=O)[C@@H]5CC[C@@H]6CC[C@H](NC(=O)OC)C(=O)N65)cc4)cc3)N2C1=O` [Compound 802], the EC50 was above 100 nM. Regarding `COC(=O)N[C@H]1CC[C@H]2CC[C@@H](c3nc(-c4ccc(-c5ccc(-c6c[nH]c([C@@H]7CCCN7C(=O)[C@@H](NC(=O)OC)C(C)C)n6)cc5)cc4)c[nH]3)N2C1=O` [Compound 803], the concentration giving a half-maximal response (EC50) is below 10 nM. For the compound `COC(=O)N[C@H]1CC[C@@H]2CC[C@@H](c3nc(-c4ccc(-c5ccc(-c6c[nH]c([C@@H]7CCCN7C(=O)[C@@H](NC(=O)OC)C(C)C)n6)cc5)cc4)c[nH]3)N2C1=O` [Compound 804], the EC50 is below 10 nM.

With `COC(=O)N[C@H]1CC[C@H]2CC[C@@H](c3nc(-c4ccc(-c5ccc(-c6c[nH]c([C@]7(C)CCCN7C(=O)[C@@H](NC(=O)OC)C(C)C)n6)cc5)cc4)c[nH]3)N2C1=O` [Compound 805], the concentration for a half-maximal effect (EC50) is 10 to 100 nM. `COC(=O)N[C@H]1CCC[C@@H]2CC[C@@H](c3nc(-c4ccc(-c5ccc(-c6c[nH]c([C@@H]7CCCC7C(=O)[C@@H](NC(=O)OC)C(C)C)n6)cc5)cc4)c[nH]3)N2C1=O` (stereo partly drawn) [Compound 806]: the EC50 was below 10 nM. In the case of `COC(=O)N[C@H]1CCC[C@H]2CC[C@@H](c3nc(-c4ccc(-c5ccc(-c6c[nH]c([C@@H]7CCCN7C(=O)[C@@H](NC(=O)OC)C(C)C)n6)cc5)cc4)c[nH]3)N2C1=O` [Compound 807], the 50% effective concentration (EC50) is below 10 nM.
